Experimental data as given in patent publication US20070275046A1, “Noval Surfactants and Applications Thereof” (TS PHARMA, priority 2003, published 2007).

How the values were obtained:
Format in all cases: physicochemical
[1] = Shape and size of tubular vesicles from transmission electron micrographs (negative staining, freeze-fracture)
Procedure: (§1) The size and the mechanical stability over time of the particles obtained in the solution were measured after filtration by dynamic light diffraction (High Performance Particle Sizer, Malvern). The nature of the particles obtained was studied by transmission electron microscopy after negative staining of the sample or after freeze-fracture (FIG. 4).
The freeze-fracture analyses confirmed the formation of these tubular vesicles and their morphological characteristics, namely the presence of an inner aqueous cavity isolated from the outside medium (FIG. 5).
The freeze-fracture analyses confirmed the formation of these tubular vesicles and their morphological characteristics, i.e. the presence of an inner aqueous cavity isolated from the outside medium.

[2] = Phase transition temperature by polarization spectrofluorimetry (DPH probe) and light scattering; conditions: polarization of fluorescent probe DPH
Procedure: (§2) The size and the mechanical stability over time of the particles obtained in the solution were measured after dynamic light diffraction filtration (High Performance Particle Sizer, Malvern). The nature of the particles obtained was studied by transmission electron microscopy after negative staining of the sample or after freeze-fracture. The critical aggregation concentration of these surfactants was determined by tensiometry or by spectrofluorimetry using the fluorescent label method. Furthermore, the Wilhelmy tensiometry technique made it possible to determine the maximum surface tensions and the area of the polar head at the water-air interface (FIG. 8). […] In order to cause this value to decrease or increase, it is necessary to, respectively, increase or decrease the length of the hydrocarbon-based chains. The phase transition temperature of these surfactants was determined by polarization spectrofluorimetry and by light scattering (FIG. 9).
With R=C17H35 (derivative A1). The phase transition temperature was measured via detection of the polarization of a fluorescent probe, DPH, by spectrofluorimetry: Tm=54° C.

[3] = Particle size by dynamic light diffraction / photon correlation spectroscopy (Malvern HPPS)
Procedure: as §1
The size and the mechanical stability over time of the particles obtained in the solution were measured after dynamic light diffraction filtration (High Performance Particle Sizer, Malvern). The nature of the particles obtained was studied by transmission electron microscopy after negative staining of the sample or after freeze-fracture. The critical aggregation concentration of these surfactants was determined by tensiometry or by spectrofluorimetry using the fluorescent label method. […] The phase transition temperature of these surfactants was determined by polarization spectrofluorimetry and by light scattering (FIG. 9).
The size distribution of the particles was measured by photon correlation spectroscopy of light of samples diluted in water using a Malvern HPPS/NIBS device equipped with a 3 mW He/Ne laser and a 288-channel correlator equipped with an avalanche of photodiodes. […]

[4] = Mechanical stability over time of the particles (particle size on storage)
Procedure: as §1, §2

[5] = Release kinetics of encapsulated carboxyfluorescein by spectrofluorimetry; conditions: compared with encapsulation in egg yolk phosphatidylcholine; 25° C., Tris buffer pH 7.4, 4 h
Procedure: The encapsulation capacity of the various compounds is determined by spectrofluorimetry using a fluorescent probe: 5 (6)-carboxyfluorescein. The release of this fluorescent label from the vesicles prepared according to standardized methods is measured.
This study requires the preparation of a Tris buffer (15 mM and 150 mM NaCl) at pH 7.4, and also of a 120 mM carboxyfluorescein solution, also at pH 7.4.
The compounds studied are weighed out (2.5 mg/ml) and are dissolved in a minimum amount of methanol. The solvent is evaporated off under reduced pressure in a rotary evaporator and the film thus obtained is dried with a stream of nitrogen. […]
The fluorescence measurements were carried out using a Jobin-Yvon spectrofluorimeter (spectrofluoromax 2), equipped with a 150 W xenon lamp. […] The samples were analyzed at an excitation wavelength of 480 nm, and an emission wavelength of 530 nm for 4 hours. […]
For each measurement, the initial fluorescence intensity (F0) is determined 30 seconds after the column filtration. The release is studied over a period of 4 h and the fluorescence intensity (Ft) is measured at regular intervals. The maximum fluorescence intensity (Fmax), which corresponds to 100% release, is obtained after tubular vesicle lysis obtained by the addition of Triton X100 (10% v/v). […]

CCCCCCCCCCCCCCCCCNC(=O)OCC(CNC(=O)CCSCCC(=O)NC(CO)(CO)CO)OC(=O)NCCCCCCCCCCCCCCCCC (centres unmarked) [A1]
average cross section of the tubular vesicles [1]: 38 nm | average length of the tubular vesicles [1]: 247 nm | phase transition temperature Tm [2]: 54 °C | mean hydrodynamic diameter of the tubular vesicles ([3]; tubular vesicles from lipid dispersed in water at 2.5 mg.ml^-1, measured by light diffraction): 132 nm | IP ([3]; tubular vesicles, light diffraction, printed with the mean hydrodynamic diameter): 0.35 | change in particle size on storage ([4]; aqueous dispersion of tubular vesicles): no change in particle size is observed after one year of storage | release kinetics of encapsulated carboxyfluorescein [5]: slower release kinetics

CCCCCCCCCCCCCCCCCC(=O)OCC(CNC(=O)CCSCCC(=O)NC(CO)(CO)CO)OC(=O)CCCCCCCCCCCCCCCCC (centres unmarked) [B, reference compound]
mechanical stability of the liposomes formed in water ([4]; liposomes with conventional structures): only a few hours
